Several values for one entry are separate records, joined by “and”; a condition that tells them apart may be missing. Identical values can stand only once. Inconclusive results and toxic doses are left out. How the source made its calls: active means survival T/C of 150% or more; inactive means T/C below 125% in these data.
Tested on: P388 leukemia ip, CD2F1 mice, survival T/C
Assay: NCI In Vivo Anticancer Drug Screen. Data for tumor model P388 Leukemia (intraperitoneal) in CD2F1 (CDF1) mice
Details: endpoint: median survival time, higher = longer survival
Summary of the method: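 Mice carrying the transplanted tumor received test compound or vehicle. Survival was recorded in each group, and the value is the treated-group measurement divided by that of the vehicle-treated control group.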

[1] = dose: 50.0 mg/kg/injection, schedule: Q01DX005 (ip), vehicle: saline with Tween-80
[2] = dose: 50.0 mg/kg/injection, schedule: Q01DX009 (ip), vehicle: saline with Tween-80
[3] = dose: 100.0 mg/kg/injection, schedule: Q01DX009 (ip), vehicle: saline with Tween-80
[4] = dose: 200.0 mg/kg/injection, schedule: Q01DX009 (ip), vehicle: saline with Tween-80
[5] = dose: 25.0 mg/kg/injection, schedule: Q01DX009 (ip), vehicle: saline with Tween-80

Measured: T/C

COc1ccc(S(=O)(=O)NNS(=O)(=O)c2ccc(OC)c(OC)c2)cc1OC
inactive: dose: 12.5 mg/kg/injection, schedule: Q01DX005 (ip), vehicle: saline with Tween-80 95 % of control | dose: 25.0 mg/kg/injection, schedule: Q01DX005 (ip), vehicle: saline with Tween-80 99 % of control | [1] 94 % of control and 96 % of control

CCCCCCCCCCCCOC(=O)c1ccc(Cl)cc1
inactive: [2] 87 % of control | [3] 102 % of control | [4] 104 % of control

Nc1nc(N)c2nc3c(ccc4ccccc43)nc2n1
inactive: dose: 60.0 mg/kg/injection, schedule: Q01DX005 (ip), vehicle: saline with Tween-80 94 % of control | dose: 120.0 mg/kg/injection, schedule: Q01DX005 (ip), vehicle: saline with Tween-80 96 % of control | dose: 240.0 mg/kg/injection, schedule: Q01DX005 (ip), vehicle: saline with Tween-80 104 % of control

COc1cc(NCc2ccc3nc(N)nc(N)c3c2C)cc(OC)c1OC (tested in a mixture with another compound)
inactive: dose: 6.25 mg/kg/injection, schedule: Q03HX008 (sc), vehicle: water 114 % of control | dose: 6.9 mg/kg/injection, schedule: Q01DX009 (oral), vehicle: water 119 % of control | dose: 12.5 mg/kg/injection, schedule: Q03HX008 (sc), vehicle: water 118 % of control | dose: 25.0 mg/kg/injection, schedule: Q01DX005 (sc), vehicle: water 118 % of control | dose: 25.0 mg/kg/injection, schedule: Q03HX008 (sc), vehicle: water 123 % of control | dose: 41.6 mg/kg/injection, schedule: Q03HX024 (ip), vehicle: water 103 % of control | dose: 62.5 mg/kg/injection, schedule: Q01DX001 (ip), vehicle: water 109 % of control | dose: 62.5 mg/kg/injection, schedule: Q01DX001 (iv), vehicle: water 117 % of control | dose: 111.1 mg/kg/injection, schedule: Q01DX009 (oral), vehicle: water 98 % of control | dose: 125.0 mg/kg/injection, schedule: Q01DX001 (ip), vehicle: water 115 % of control | dose: 200.0 mg/kg/injection, schedule: Q01DX005 (sc), vehicle: water 95 % of control | dose: 50.0 micrograms per hour, schedule: Q#X X024 (sc), vehicle: water 120 % of control | dose: 50.0 micrograms per hour, schedule: Q#X X048 (sc), vehicle: water 123 % of control | dose: 70.0 micrograms per hour, schedule: Q#X X006 (iv), vehicle: water 112 % of control | dose: 85.0 micrograms per hour, schedule: Q#X X006 (iv), vehicle: water 121 % of control | dose: 100.0 micrograms per hour, schedule: Q#X X024 (sc), vehicle: water 118 % of control | dose: 100.0 micrograms per hour, schedule: Q#X X120 (sc), vehicle: water 112 % of control | dose: 200.0 micrograms per hour, schedule: Q#X X120 (sc), vehicle: water 94 % of control
active: dose: 2.6 mg/kg/injection, schedule: Q03HX024 (ip), vehicle: water 166 % of control | dose: 5.0 mg/kg/injection, schedule: Q03HX024 (ip), vehicle: water 182 % of control | dose: 5.2 mg/kg/injection, schedule: Q03HX024 (ip), vehicle: water 192 % of control | dose: 10.0 mg/kg/injection, schedule: Q03HX024 (ip), vehicle: water 201 % of control | dose: 10.4 mg/kg/injection, schedule: Q03HX024 (ip), vehicle: water 217 % of control | dose: 13.8 mg/kg/injection, schedule: Q01DX009 (ip), vehicle: water 175 % of control | dose: 13.8 mg/kg/injection, schedule: Q01DX009 (oral), vehicle: water 156 % of control | dose: 20.0 mg/kg/injection, schedule: Q03HX024 (ip), vehicle: water 230 % of control | dose: 20.8 mg/kg/injection, schedule: Q03HX024 (ip), vehicle: water 233 % of control | dose: 25.0 mg/kg/injection, schedule: Q01DX005 (ip), vehicle: water 153 % of control and 154 % of control | dose: 27.7 mg/kg/injection, schedule: Q01DX009 (ip), vehicle: water 185 % of control | dose: 27.7 mg/kg/injection, schedule: Q01DX009 (oral), vehicle: water 163 % of control | dose: 40.0 mg/kg/injection, schedule: Q03HX024 (ip), vehicle: water 223 % of control | dose: 50.0 mg/kg/injection, schedule: Q01DX005 (ip), vehicle: water 150 % of control and 160 % of control | dose: 50.0 mg/kg/injection, schedule: Q01DX005 (iv), vehicle: water 166 % of control | dose: 55.5 mg/kg/injection, schedule: Q01DX009 (ip), vehicle: water 208 % of control | dose: 55.5 mg/kg/injection, schedule: Q01DX009 (oral), vehicle: water 211 % of control | dose: 75.0 mg/kg/injection, schedule: Q03HX008 (sc), vehicle: water 163 % of control | dose: 100.0 mg/kg/injection, schedule: Q01DX005 (ip), vehicle: water 155 % of control and 173 % of control | dose: 100.0 mg/kg/injection, schedule: Q01DX005 (sc), vehicle: water 163 % of control | dose: 50.0 micrograms per hour, schedule: Q#X X072 (sc), vehicle: water 163 % of control | dose: 200.0 micrograms per hour, schedule: Q#X X072 (sc), vehicle: water 181 % of control

CC1(O)c2ccccc2-c2ccccc2C1(C)O (stereo unspecified)
inactive: [1] 97 % of control | dose: 100.0 mg/kg/injection, schedule: Q01DX005 (ip), vehicle: saline with Tween-80 100 % of control | dose: 200.0 mg/kg/injection, schedule: Q01DX005 (ip), vehicle: saline with Tween-80 90 % of control

Clc1ccc2c(NCCCC3CCCN4CCCCC34)ccnc2c1 (stereo unspecified)
inactive: dose: 50.0 mg/kg/injection, schedule: Q01DX005 (ip), vehicle: Klucel (hydroxypropylcellulose) (HPC) 99 % of control | dose: 100.0 mg/kg/injection, schedule: Q01DX005 (ip), vehicle: Klucel (hydroxypropylcellulose) (HPC) 98 % of control

O=[N+]([O-])c1c(NC2(CO)CCCC2)ncnc1NC1(CO)CCCC1
inactive: dose: 65.5 mg/kg/injection, schedule: Q04DX003 (ip), vehicle: Klucel (hydroxypropylcellulose) (HPC) 97 % of control | dose: 131.0 mg/kg/injection, schedule: Q04DX003 (ip), vehicle: Klucel (hydroxypropylcellulose) (HPC) 105 % of control | dose: 262.0 mg/kg/injection, schedule: Q04DX003 (ip), vehicle: Klucel (hydroxypropylcellulose) (HPC) 102 % of control

CSc1nc(C(N)=O)cc(=O)[nH]1
inactive: dose: 3.12 mg/kg/injection, schedule: Q01DX009 (ip), vehicle: Klucel (hydroxypropylcellulose) (HPC) 104 % of control | dose: 6.25 mg/kg/injection, schedule: Q01DX009 (ip), vehicle: Klucel (hydroxypropylcellulose) (HPC) 104 % of control | dose: 12.5 mg/kg/injection, schedule: Q01DX009 (ip), vehicle: Klucel (hydroxypropylcellulose) (HPC) 104 % of control and 106 % of control | dose: 25.0 mg/kg/injection, schedule: Q01DX009 (ip), vehicle: Klucel (hydroxypropylcellulose) (HPC) 105 % of control | dose: 50.0 mg/kg/injection, schedule: Q01DX009 (ip), vehicle: Klucel (hydroxypropylcellulose) (HPC) 92 % of control

CCOc1cc(=O)cc2n(-c3cc(OCC)c(O)c(OCC)c3)c3ccccc3nc1-2
inactive: dose: 50.0 mg/kg/injection, schedule: Q01DX009 (ip), vehicle: suspension in saline 100 % of control | dose: 100.0 mg/kg/injection, schedule: Q01DX009 (ip), vehicle: suspension in saline 101 % of control | dose: 200.0 mg/kg/injection, schedule: Q01DX009 (ip), vehicle: suspension in saline 97 % of control

O=[N+]([O-])c1cc(Cl)c(Cl)cc1[N+](=O)[O-]
inactive: [2] 98 % of control | [3] 111 % of control

CC(=O)Oc1ccc(CC(=O)O)cc1
inactive: [5] 107 % of control | [2] 103 % of control | [3] 103 % of control | [4] 107 % of control

CC(=O)Nc1ccc(C(=O)C(C)Br)cc1 (stereo unspecified)
inactive: dose: 6.25 mg/kg/injection, schedule: Q01DX009 (ip), vehicle: saline with Tween-80 106 % of control and 117 % of control and 119 % of control | dose: 12.5 mg/kg/injection, schedule: Q01DX009 (ip), vehicle: saline with Tween-80 116 % of control and 117 % of control and 124 % of control | [5] 108 % of control and 119 % of control and 124 % of control

C[N+](C)(C)CC(=O)O
inactive: dose: 10.0 mg/kg/injection, schedule: Q01DX005 (ip), vehicle: saline 104 % of control | dose: 20.0 mg/kg/injection, schedule: Q01DX005 (ip), vehicle: saline 99 % of control | dose: 31.25 mg/kg/injection, schedule: Q01DX005 (ip), vehicle: saline 100 % of control | dose: 40.0 mg/kg/injection, schedule: Q01DX005 (ip), vehicle: saline 98 % of control | dose: 62.5 mg/kg/injection, schedule: Q01DX005 (ip), vehicle: saline 105 % of control | dose: 125.0 mg/kg/injection, schedule: Q01DX005 (ip), vehicle: saline 91 % of control | dose: 250.0 mg/kg/injection, schedule: Q01DX005 (ip), vehicle: saline 87 % of control

— PubChem BioAssay AID330 (DTP/NCI, 2004)
